From patent US9952217B2, “Anti-HBc quantitative detection method and uses thereof in monitoring and controlling disease progression of chronic hepatitis B patient and in predicting therapeutic effect” (priority 2012, dated 2018)

Tested on: hepatitis B virus
Test: Adefovir dipivoxil therapy of HBeAg positive chronic hepatitis B patients (Cohort A)
Format: in vivo, human
Description: Patient cohort A: 49 HBeAg positive patients, all patients accepted therapy of adefovir dipivoxil (10 mg/day), for 96 weeks in total, and were follow-up visited for 12 weeks after stop of therapy.
The above patients before therapy all met the criteria of disease adaptable for therapy as recommended by the Guide of Clinical Management of Chronic Hepatitis B of APASL: HBsAg was positive for consecutive 1 year or more, HBeAg was positive and anti-HBe was negative, serum ALT level was higher than 2 times of ULN; the patients were chosen to exclude possibility of having accompanied infection of hepatitis C virus (HCV), human immunodeficiency virus (HIV), hepatitis D virus (HDV), hepatitis E virus (HEV), and have no clinical medicine evidence of having accompanied autoimmune or metabolic liver diseases.
It was performed according to the method described in section 4.2 of Example 4.
It was performed according to the method described in section 4.3 of Example 4.
Main therapeutic end was defined when HBeAg seroconversion occurred at follow-up visit end.
All statistic methods were performed according to those described in Example 4.

Structure (SMILES): CC(C)(C)C(=O)OCOP(=O)(COCCn1cnc2c(N)ncnc21)OCOC(=O)C(C)(C)C [adefovir dipivoxil]
- average increase (bounce) of serum anti-HBc level after therapy (108 weeks versus therapy end (96 weeks)): 0.29 log10 IU/ml
- decrease of average HBV DNA level at follow-up end versus before therapy (HBc-High group (baseline anti-HBc ≥29000 IU/ml, n=16)): 3.48±2.24 log10 copies/mL
- decrease of average HBV DNA level at follow-up end versus before therapy (HBc-Low group (baseline anti-HBc <29000 IU/ml, n=33)): 1.69±2.05 log10 copies/mL
- therapeutic effective rate (HBeAg seroconversion at follow-up visit end) (all 49 patients, 10 mg/day for 96 weeks, follow-up 12 weeks after stop): 18.4%
- response rate (HBeAg seroconversion after therapy) (baseline anti-HBc 9000-29000 IU/ml (n=19)): 10.5%
- patients with HBeAg seroconversion after therapy (baseline anti-HBc <9000 IU/ml (16 patients as printed)): none
- response rate (HBeAg seroconversion after therapy) (baseline anti-HBc ≥29000 IU/ml, three-group analysis): 43.8%
- decline of average serum anti-HBc level per 12 weeks (baseline to 60 weeks after beginning of therapy): 0.20±0.05 log10 IU/mL
- ratio of occurrence rates (Risk Ratio, RR) of HBeAg seroconversion between high and low anti-HBc groups (cutoff 29000 IU/ml baseline anti-HBc): 7.22
- effective rate (HBeAg seroconversion at follow-up visit end) (patients with baseline anti-HBc greater than 29000 IU/ml (n=16)): 43.8%
- effective rate (HBeAg seroconversion at follow-up visit end) (patients with baseline anti-HBc less than 29000 IU/ml (n=33)): 6.1%
